From the NIST ThermoML archive (doi:10.1021/je0502896)
“And” between values parts separate entries of the source, which are not always exact repeats. Identical values can stand only once. ± gives the expanded uncertainty stated by the source.

Settings: 313.15 K; Liquid

Compound | vapor or sublimation pressure
c1ccccc1 [benzene] | 24.39 ± 0.18 kPa and 24.38 ± 0.18 kPa and 24.4 ± 0.18 kPa
CCC(C)O (stereo not drawn) [butan-2-ol] | 6.062 ± 0.069 kPa [middle of 4 runs]
CC(C)OC(C)C [diisopropyl ether] | 37.1 ± 0.27 kPa and 37.14 ± 0.27 kPa and 37.12 ± 0.27 kPa
